Reference: PMC5589098 (PLoS ONE, 2017)
Like-named read-outs stand apart in the source and are kept apart here. Where a SMILES comes first, the peptide text is derived from it. Bridges are numbered along the chain shown (N, C = ends).

Legend:
[1] = target: human (h) Cav2.2 channels in SH-SY5Y cells (Homo sapiens, UniProt Q00975); experiment: cell-based
hCav1.3 = hCav1.3 (Homo sapiens, UniProt Q01668); experiment: cell-based
hCav3.1 = hCav3.1 (Homo sapiens, UniProt O43497); experiment: cell-based
Chain of hCav3.1 (O43497 whole entry): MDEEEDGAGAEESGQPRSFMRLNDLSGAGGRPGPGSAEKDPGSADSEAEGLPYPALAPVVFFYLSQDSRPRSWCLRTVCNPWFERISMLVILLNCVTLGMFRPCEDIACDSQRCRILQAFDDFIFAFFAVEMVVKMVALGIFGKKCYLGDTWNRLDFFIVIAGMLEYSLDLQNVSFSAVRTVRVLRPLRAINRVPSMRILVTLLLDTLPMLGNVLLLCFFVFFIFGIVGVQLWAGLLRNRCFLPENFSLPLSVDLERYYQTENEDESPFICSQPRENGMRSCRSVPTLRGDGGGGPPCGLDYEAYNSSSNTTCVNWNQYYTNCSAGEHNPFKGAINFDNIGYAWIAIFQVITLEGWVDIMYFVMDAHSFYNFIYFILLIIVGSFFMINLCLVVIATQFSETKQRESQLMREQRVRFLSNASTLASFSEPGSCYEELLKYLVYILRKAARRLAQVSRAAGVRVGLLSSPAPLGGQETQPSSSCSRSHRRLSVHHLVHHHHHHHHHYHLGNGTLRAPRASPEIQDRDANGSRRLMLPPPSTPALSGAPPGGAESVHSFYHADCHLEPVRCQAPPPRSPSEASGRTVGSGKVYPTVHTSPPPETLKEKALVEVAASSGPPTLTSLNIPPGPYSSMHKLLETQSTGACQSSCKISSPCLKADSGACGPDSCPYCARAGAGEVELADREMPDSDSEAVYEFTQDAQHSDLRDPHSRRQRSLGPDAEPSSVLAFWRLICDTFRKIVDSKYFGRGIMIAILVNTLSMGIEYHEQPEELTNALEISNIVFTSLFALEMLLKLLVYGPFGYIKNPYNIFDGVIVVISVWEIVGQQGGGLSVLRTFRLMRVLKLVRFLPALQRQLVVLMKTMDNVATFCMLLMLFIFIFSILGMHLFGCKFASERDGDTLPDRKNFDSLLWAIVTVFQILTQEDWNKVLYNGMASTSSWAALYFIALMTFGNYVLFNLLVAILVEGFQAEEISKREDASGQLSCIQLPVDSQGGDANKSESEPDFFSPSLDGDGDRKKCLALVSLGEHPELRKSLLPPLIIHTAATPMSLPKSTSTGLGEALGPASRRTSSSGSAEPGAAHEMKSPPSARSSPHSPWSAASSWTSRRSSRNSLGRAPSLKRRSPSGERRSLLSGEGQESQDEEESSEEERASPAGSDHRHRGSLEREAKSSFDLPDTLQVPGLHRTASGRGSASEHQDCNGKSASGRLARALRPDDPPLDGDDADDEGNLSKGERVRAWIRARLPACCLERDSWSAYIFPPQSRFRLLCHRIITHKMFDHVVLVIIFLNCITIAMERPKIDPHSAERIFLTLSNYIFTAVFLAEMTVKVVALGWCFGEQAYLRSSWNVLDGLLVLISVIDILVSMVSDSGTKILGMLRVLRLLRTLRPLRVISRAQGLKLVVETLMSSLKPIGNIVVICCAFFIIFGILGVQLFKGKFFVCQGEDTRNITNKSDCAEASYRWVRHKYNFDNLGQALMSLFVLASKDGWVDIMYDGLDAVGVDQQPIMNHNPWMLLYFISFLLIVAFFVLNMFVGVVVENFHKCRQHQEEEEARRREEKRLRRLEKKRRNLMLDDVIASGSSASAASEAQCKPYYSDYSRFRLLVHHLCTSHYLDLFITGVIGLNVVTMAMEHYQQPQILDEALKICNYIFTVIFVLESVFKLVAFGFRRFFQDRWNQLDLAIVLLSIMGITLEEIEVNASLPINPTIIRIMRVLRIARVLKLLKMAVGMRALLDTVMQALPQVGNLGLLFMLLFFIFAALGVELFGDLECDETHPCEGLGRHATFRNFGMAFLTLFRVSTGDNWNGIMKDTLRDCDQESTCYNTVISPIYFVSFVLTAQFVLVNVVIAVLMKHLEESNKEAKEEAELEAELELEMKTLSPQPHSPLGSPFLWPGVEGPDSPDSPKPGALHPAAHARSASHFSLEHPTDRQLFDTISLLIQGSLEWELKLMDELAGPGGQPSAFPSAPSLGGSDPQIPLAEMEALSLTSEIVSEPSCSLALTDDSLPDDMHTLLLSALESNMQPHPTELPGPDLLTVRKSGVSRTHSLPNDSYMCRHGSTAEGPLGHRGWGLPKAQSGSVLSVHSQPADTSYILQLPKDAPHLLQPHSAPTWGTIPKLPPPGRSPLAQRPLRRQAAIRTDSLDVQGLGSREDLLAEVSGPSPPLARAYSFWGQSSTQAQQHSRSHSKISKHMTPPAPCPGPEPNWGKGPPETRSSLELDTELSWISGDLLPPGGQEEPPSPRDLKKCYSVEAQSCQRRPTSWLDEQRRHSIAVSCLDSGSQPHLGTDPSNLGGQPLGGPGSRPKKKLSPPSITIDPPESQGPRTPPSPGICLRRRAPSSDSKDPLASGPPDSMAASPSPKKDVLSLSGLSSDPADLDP

[2] = target: rat (r) Cav2.2 (Cav α1b + Cav β1b + Cav α2δ) (Rattus norvegicus, UniProt Q02294); experiment: cell-based
hNav1.1 = hNav1.1 (Homo sapiens, UniProt P35498); experiment: cell-based
hNav1.2 = hNav1.2 (Homo sapiens, UniProt Q99250); experiment: cell-based
hNav1.3 = hNav1.3 (Homo sapiens, UniProt Q9NY46); experiment: cell-based
hNav1.4 = hNav1.4 (Homo sapiens, UniProt P35499); experiment: cell-based; assay type: cell-based
hNav1.5 = hNav1.5 (Homo sapiens, UniProt Q14524); experiment: cell-based; assay type: cell-based
hNav1.6 = hNav1.6 (Homo sapiens, UniProt Q9UQD0); experiment: cell-based; assay type: cell-based
Chain of hNav1.6 (Q9UQD0 whole entry): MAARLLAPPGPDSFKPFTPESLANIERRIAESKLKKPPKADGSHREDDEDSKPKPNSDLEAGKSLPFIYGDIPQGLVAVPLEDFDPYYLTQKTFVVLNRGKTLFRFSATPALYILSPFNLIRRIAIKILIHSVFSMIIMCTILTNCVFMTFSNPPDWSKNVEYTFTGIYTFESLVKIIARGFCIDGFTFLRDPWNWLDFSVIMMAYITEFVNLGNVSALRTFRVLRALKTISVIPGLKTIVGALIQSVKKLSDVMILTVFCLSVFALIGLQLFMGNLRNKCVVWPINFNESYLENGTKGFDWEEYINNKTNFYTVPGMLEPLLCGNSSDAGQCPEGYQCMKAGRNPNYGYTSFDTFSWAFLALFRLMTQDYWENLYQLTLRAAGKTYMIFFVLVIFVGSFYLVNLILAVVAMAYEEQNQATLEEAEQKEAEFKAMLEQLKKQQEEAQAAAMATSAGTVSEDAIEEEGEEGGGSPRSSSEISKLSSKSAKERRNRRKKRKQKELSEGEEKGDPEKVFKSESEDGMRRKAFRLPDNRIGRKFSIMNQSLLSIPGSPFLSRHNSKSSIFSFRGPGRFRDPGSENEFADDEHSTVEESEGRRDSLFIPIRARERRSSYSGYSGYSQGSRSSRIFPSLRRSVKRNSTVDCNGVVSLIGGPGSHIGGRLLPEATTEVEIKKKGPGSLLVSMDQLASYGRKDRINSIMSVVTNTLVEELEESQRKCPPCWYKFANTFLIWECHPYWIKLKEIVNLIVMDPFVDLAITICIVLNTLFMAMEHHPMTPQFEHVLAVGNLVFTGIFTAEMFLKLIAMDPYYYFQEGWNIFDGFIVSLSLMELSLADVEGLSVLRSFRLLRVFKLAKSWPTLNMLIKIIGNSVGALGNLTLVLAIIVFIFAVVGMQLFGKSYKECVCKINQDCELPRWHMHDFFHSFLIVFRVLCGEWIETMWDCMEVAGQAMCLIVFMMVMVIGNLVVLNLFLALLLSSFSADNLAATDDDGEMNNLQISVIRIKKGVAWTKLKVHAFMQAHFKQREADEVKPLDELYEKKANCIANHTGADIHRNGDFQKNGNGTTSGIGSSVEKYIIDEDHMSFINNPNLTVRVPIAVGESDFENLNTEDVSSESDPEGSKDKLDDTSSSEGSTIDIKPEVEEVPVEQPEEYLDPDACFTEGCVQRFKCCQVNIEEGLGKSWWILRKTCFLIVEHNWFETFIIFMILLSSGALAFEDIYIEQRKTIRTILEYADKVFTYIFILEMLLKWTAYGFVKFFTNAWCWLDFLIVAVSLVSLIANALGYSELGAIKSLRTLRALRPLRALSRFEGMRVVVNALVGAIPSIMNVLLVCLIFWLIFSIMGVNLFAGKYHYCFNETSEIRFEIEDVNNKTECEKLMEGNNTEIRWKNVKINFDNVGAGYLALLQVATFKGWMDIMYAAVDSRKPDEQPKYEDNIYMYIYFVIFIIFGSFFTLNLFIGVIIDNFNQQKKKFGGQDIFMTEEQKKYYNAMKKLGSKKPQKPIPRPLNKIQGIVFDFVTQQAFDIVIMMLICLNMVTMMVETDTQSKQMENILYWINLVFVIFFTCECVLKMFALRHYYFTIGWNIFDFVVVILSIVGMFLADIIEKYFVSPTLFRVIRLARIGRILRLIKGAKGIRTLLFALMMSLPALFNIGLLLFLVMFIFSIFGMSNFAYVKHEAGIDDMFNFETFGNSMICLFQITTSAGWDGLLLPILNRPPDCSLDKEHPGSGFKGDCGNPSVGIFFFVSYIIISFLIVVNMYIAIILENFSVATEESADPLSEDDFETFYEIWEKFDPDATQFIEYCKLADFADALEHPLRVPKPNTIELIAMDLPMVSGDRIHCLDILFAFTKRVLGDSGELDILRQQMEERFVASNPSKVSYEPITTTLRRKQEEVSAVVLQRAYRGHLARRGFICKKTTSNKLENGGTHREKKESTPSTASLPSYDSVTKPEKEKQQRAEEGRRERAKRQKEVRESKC

hNav1.7 [3] = target: T1, hNav1.7 (Homo sapiens, UniProt Q15858); experiment: cell-based
hNav1.8 = hNav1.8 (Homo sapiens, UniProt Q9Y5Y9); experiment: cell-based
hNav1.7 [4] = target: T1, hNav1.7; experiment: cell-based; remark: listed apart in the source
C57BL/6J mice = settings: mouse, in vivo
[5] = system: adult sheep blowflies (Lucilia cuprina); settings: in vivo
[6] = system: Nav1.7-mediated pain in C57BL/6J mice; settings: mouse, in vivo

| SMILES | IC50 [1] [µM] | activity at Cav1.3 (hCav1.3) | activity at Cav3.1 (hCav3.1) | IC50 (hNav1.1) [µM] | IC50 (hNav1.2) [µM] | IC50 (hNav1.3) [µM] | IC50 (hNav1.5) [µM] | IC50 (hNav1.6) [µM] | IC50 (hNav1.7 [3]) [µM] | IC50 (hNav1.8) [µM] | ataxia index (number of foot slips/meters travelled) (C57BL/6J mice) | side effects (C57BL/6J mice) | further results |
| --- | --- | --- | --- | --- | --- | --- | --- | --- | --- | --- | --- | --- | --- |
| CC(C)C[C@H](NC(=O)[C@H](CC(=O)O)NC(=O)[C@H](Cc1ccc(O)cc1)NC(=O)[C@H](CCCCN)NC(=O)[C@@H]1CSSC[C@@H]2NC(=O)[C@H](CCCCN)NC(=O)[C@H](CC(=O)O)NC(=O)[C@H](CC(N)=O)NC(=O)[C@H](CCCCN)NC(=O)[C@@H]3CCCN3C(=O)[C@H](CC(=O)O)NC(=O)[C@@H]3CSSC[C@H](NC(=O)[C@H](CO)NC(=O)[C@H](Cc4ccc(O)cc4)NC(=O)[C@H](CC(N)=O)NC(=O)[C@H](CCCCN)NC(=O)[C@H](CSSC[C@H](NC(=O)[C@@H](N)CC(=O)O)C(=O)N[C@@H](CC(C)C)C(=O)NCC(=O)N[C@@H](Cc4c[nH]c5ccccc45)C(=O)N[C@@H](Cc4ccccc4)C(=O)N[C@@H](CCCCN)C(=O)N[C@@H](CO)C(=O)N3)NC2=O)C(=O)N[C@@H](CO)C(=O)N[C@@H](CCCNC(=N)N)C(=O)N[C@@H](CCCNC(=N)N)C(=O)N[C@@H](CC(=O)O)C(=O)N[C@@H](CCCNC(=N)N)C(=O)N[C@@H](Cc2c[nH]c3ccccc23)C(=O)N1)C(N)=O [Cd1a] (H-DCLGWFKSCDPKNDKCCKNYSCSRRDRWCKYDL-NH2; disulfide 2-17, 9-22, 16-29) | 2.6 | inactive | inactive | 2.18 ± 0.69 | 0.13 ± 0.04 | > 30 | > 30 | > 30 | 3.34 ± 1.56 | 6.92 ± 3.44 | no significant effect | did not produce any apparent side effects | IC50 (hCav1.3): > 30 µM; IC50 (hCav3.1): > 30 µM; IC50 [2]: 3 µM; inhibition at 3 µM ([2]; TS/A, 3 μM, n = 9, read-out: inhibition of rCav2.2 currents): ~50%; IC50 (hNav1.4): > 30 µM; IC50 at Nav1.4 (hNav1.4): inactive; IC50 at Nav1.5 (hNav1.5): inactive; IC50 at Nav1.6 (hNav1.6): inactive; enhanced recovery from inhibition by strong positive-depolarising pulse (hNav1.7 [4]): ~ 70%; IC50 (hNav1.7 [4]; n = 10, read-out: IC50 at hNav1.7 (peak current)): 0.016 µM; paralysis or lethality at 24 h [5]: No signs of paralysis or lethality; recovery from paralysis [5]: all flies fully recovered |
| CC(C)C[C@H](NC(=O)[C@H](CC(=O)O)NC(=O)[C@H](Cc1ccc(O)cc1)NC(=O)[C@H](CCCCN)NC(=O)[C@@H]1CSSC[C@@H]2NC(=O)[C@H](CCCCN)NC(=O)[C@H](CC(=O)O)NC(=O)[C@H](CC(N)=O)NC(=O)[C@H](CCCCN)NC(=O)[C@@H]3CCCN3C(=O)[C@H](CC(=O)O)NC(=O)[C@@H]3CSSC[C@H](NC(=O)[C@H]([C@@H](C)O)NC(=O)[C@H](Cc4ccc(O)cc4)NC(=O)[C@H](CC(N)=O)NC(=O)[C@H](CCCCN)NC(=O)[C@H](CSSC[C@H](NC(=O)[C@@H](N)CC(=O)O)C(=O)N[C@@H](CC(C)C)C(=O)NCC(=O)N[C@@H](Cc4c[nH]c5ccccc45)C(=O)N[C@@H](Cc4ccccc4)C(=O)N[C@@H](CCCCN)C(=O)N[C@@H](CO)C(=O)N3)NC2=O)C(=O)N[C@@H](CO)C(=O)N[C@@H](CCCNC(=N)N)C(=O)N[C@@H](CCCNC(=N)N)C(=O)N[C@@H](CC(=O)O)C(=O)N[C@@H](CCCNC(=N)N)C(=O)N[C@@H](Cc2c[nH]c3ccccc23)C(=O)N1)C(N)=O [Cm1a] (H-DCLGWFKSCDPKNDKCCKNYTCSRRDRWCKYDL-NH2; disulfide 2-17, 9-22, 16-29) | 0.4 ± 0.2 | inactive | inactive | 1.06 ± 0.32 | – | > 10 | > 10 | > 10 | 5.12 ± 2.85 | > 10 | – | did not produce any apparent side effects | IC50 (hNav1.2; read-out: IC50 at Nav1.2): 0.07 µM |
| CC(C)C[C@H](NC(=O)[C@H](Cc1ccc(O)cc1)NC(=O)[C@H](Cc1ccc(O)cc1)NC(=O)[C@H](CCCCN)NC(=O)[C@@H]1CSSC[C@@H]2NC(=O)[C@H](CCCCN)NC(=O)[C@H](CC(=O)O)NC(=O)[C@H](CC(N)=O)NC(=O)[C@H](CCCCN)NC(=O)[C@@H]3CCCN3C(=O)[C@H](CC(=O)O)NC(=O)[C@@H]3CSSC[C@H](NC(=O)[C@H]([C@@H](C)O)NC(=O)[C@H](Cc4ccc(O)cc4)NC(=O)[C@H](CC(N)=O)NC(=O)[C@H](CCCCN)NC(=O)[C@H](CSSC[C@H](NC(=O)[C@@H](N)CC(=O)O)C(=O)N[C@@H](CC(C)C)C(=O)NCC(=O)N[C@@H](Cc4c[nH]c5ccccc45)C(=O)N[C@@H](Cc4ccccc4)C(=O)N[C@@H](CCCCN)C(=O)N[C@@H](CO)C(=O)N3)NC2=O)C(=O)N[C@@H](CO)C(=O)N[C@@H](CCCNC(=N)N)C(=O)N[C@@H](CCCNC(=N)N)C(=O)N[C@@H](CC(=O)O)C(=O)N[C@@H](CCCNC(=N)N)C(=O)N[C@@H](Cc2c[nH]c3ccccc23)C(=O)N1)C(N)=O [Cm1b] (H-DCLGWFKSCDPKNDKCCKNYTCSRRDRWCKYYL-NH2; disulfide 2-17, 9-22, 16-29) | 1.1 ± 0.6 | inactive | inactive | 0.17 ± 0.11 | 0.08 ± 0.02 | 5.57 ± 0.04 | > 10 | 3.99 ± 1.6 | 0.23 ± 0.13 | > 10 | – | did not produce any apparent side effects | – |
| NC1=N[C@H](O)[C@H]2[C@H]3O[C@]4(O)O[C@@H]([C@@H](O)[C@@]2(N1)[C@@H]4O)[C@]3(O)CO [TTX, tetrodotoxin] | – | – | – | – | – | – | – | – | – | – | significantly increased the ataxia index (*p < 0.05) | – | reversal of OD1-evoked pain behaviours [6]: fully reversed |
